# In US9125913B2, “Bcl-2-selective apoptosis-inducing agents for the treatment of cancer and immune diseases” (AbbVie Inc., priority 2008, dated 2015):
# Experiments:
# [1] = test system: GST-Bcl-2; test: TR-FRET binding assay, Bcl-2; conditions: TR-FRET Ki values
# Procedure, shortened: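 Ki values come from Wang's competitive-binding equation applied to TR-FRET signal (excitation 340/35 nm; emission 520/525 nm F-Bak peptide, 495/510 nm Tb antibody). Protein, probe and antibody incubated with compound 3 h at room temperature; dilution series began at 50 μM as 2× stock in 10% DMSO.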
# [2] = test system: FL5.12/Bcl-2 cells; test: FL5.12/Bcl-2 cell viability assay; assay type: cell-based, murine; conditions: ratio of canine platelet EC50 to FL5.12/Bcl-2 EC50
# Procedure, shortened: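 Bcl-2-overexpressing murine FL5.12 transfectants underwent IL-3 removal for 48 hrs before a 24 hr compound treatment. Cell viability was quantified with CellTitre Glo.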
Compound,Binding selectivity ratio (Bcl-XL Ki/Bcl-2 Ki) [1],Selectivity Ratio (Platelet EC50/FL5.12/Bcl-2 EC50) [2]
"CN(C)CCOc1ccc(-c2ccc(Cl)cc2)c(CN2CCN(c3ccc(C(=O)NS(=O)(=O)c4ccc(NCCCN5CCCC5)c([N+](=O)[O-])c4)c(Oc4ccccc4)c3)CC2)c1 [Example 121, 4-[4-({4′-chloro-4-[2-(dimethylamino)ethoxy]-1,1′-biphenyl-2-yl}methyl)piperazin-1-yl]-N-({3-nitro-4-[(3-pyrrolidin-1-ylpropyl)amino]phenyl}sulfonyl)-2-phenoxybenzamide]",388,8
"O=C(NS(=O)(=O)c1ccc(NCC2CCOCC2)c([N+](=O)[O-])c1)c1ccc(N2CCN(Cc3cc(CN4CCCC4)ccc3-c3ccc(Cl)cc3)CC2)cc1Oc1cccc2[nH]ccc12 [Example 24, 4-(4-{[4′-chloro-4-(pyrrolidin-1-ylmethyl)-1,1′-biphenyl-2-yl]methyl}piperazin-1-yl)-2-(1H-indol-4-yloxy)-N-({3-nitro-4-[(tetrahydro-2H-pyran-4-ylmethyl)amino]phenyl}sulfonyl)benzamide]",>3402.1,>906
"CN1CCN(CCCNc2ccc(S(=O)(=O)NC(=O)c3ccc(N4CCN(CC5=C(c6ccc(Cl)cc6)CC(C)(C)CC5)CC4)cc3Oc3ccc4[nH]ccc4c3)cc2[N+](=O)[O-])CC1 [Example 96, 4-(4-{[2-(4-chlorophenyl)-4,4-dimethylcyclohex-1-en-1-yl]methyl}piperazin-1-yl)-2-(1H-indol-5-yloxy)-N-[(4-{[3-(4-methylpiperazin-1-yl)propyl]amino}-3-nitrophenyl)sulfonyl]benzamide]",186.8,2043
"CN(C)CCOc1ccc(-c2ccc(Cl)cc2)c(CN2CCN(c3ccc(C(=O)NS(=O)(=O)c4ccc(NCC5CCOCC5)c([N+](=O)[O-])c4)c(Oc4cccc5[nH]ccc45)c3)CC2)c1 [Example 125, 4-[4-({4′-chloro-4-[2-(dimethylamino)ethoxy]-1,1′-biphenyl-2-yl}methyl)piperazin-1-yl]-2-(1H-indol-4-yloxy)-N-({3-nitro-4-[(tetrahydro-2H-pyran-4-ylmethyl)amino]phenyl}sulfonyl)benzamide]",3879,4719
"CN(C)CCCOc1ccc(S(=O)(=O)NC(=O)c2ccc(N3CCN(Cc4ccccc4-c4ccc(Cl)cc4)CC3)cc2Oc2ccccc2)cc1[N+](=O)[O-] [Example 94, 4-{4-[(4′-chloro-1,1′-biphenyl-2-yl)methyl]piperazin-1-yl}-N-({4-[3-(dimethylamino)propoxy]-3-nitrophenyl}sulfonyl)-2-phenoxybenzamide]",33.1,590
"CN(C)CCOc1ccc(-c2ccc(Cl)cc2)c(CN2CCN(c3ccc(C(=O)NS(=O)(=O)c4ccc(NC5CCN(CC(F)(F)F)CC5)c([N+](=O)[O-])c4)c(Oc4ccccc4)c3)CC2)c1 [Example 137, 4-[4-({4′-chloro-4-[2-(dimethylamino)ethoxy]-1,1′-biphenyl-2-yl}methyl)piperazin-1-yl]-N-[(3-nitro-4-{[1-(2,2,2-trifluoroethyl)piperidin-4-yl]amino}phenyl)sulfonyl]-2-phenoxybenzamide]",52.4,>178
"CN1CCC(CNc2ccc(S(=O)(=O)NC(=O)c3ccc(N4CCN(CC5=C(c6ccc(Cl)cc6)CC(C)(C)CC5)CC4)cc3Oc3ccc4[nH]ccc4c3)cc2[N+](=O)[O-])(N(C)C)CC1 [Example 109, 4-(4-{[2-(4-chlorophenyl)-4,4-dimethylcyclohex-1-en-1-yl]methyl}piperazin-1-yl)-N-{[4-({[4-(dimethylamino)-1-methylpiperidin-4-yl]methyl}amino)-3-nitrophenyl]sulfonyl}-2-(1H-indol-5-yloxy)benzamide]",>4099.4,>1404
"CC1(C)CCC(CN2CCN(c3ccc(C(=O)NS(=O)(=O)c4ccc(NCCCN5CCOCC5)c([N+](=O)[O-])c4)c(Oc4cccc5[nH]ccc45)c3)CC2)=C(c2ccc(Cl)cc2)C1 [Example 55, 4-(4-{[2-(4-chlorophenyl)-4,4-dimethylcyclohex-1-en-1-yl]methyl}piperazin-1-yl)-2-(1H-indol-4-yloxy)-N-({4-[(3-morpholin-4-ylpropyl)amino]-3-nitrophenyl}sulfonyl)benzamide]",126.9,1614
"CC1(C)CCC(CN2CCN(c3ccc(C(=O)NS(=O)(=O)c4ccc(NC5CCN(C6CCCC6)CC5)c([N+](=O)[O-])c4)c(Oc4ccc5[nH]ccc5c4)c3)CC2)=C(c2ccc(Cl)cc2)C1 [Example 26, 4-(4-{[2-(4-chlorophenyl)-4,4-dimethylcyclohex-1-en-1-yl]methyl}piperazin-1-yl)-N-({4-[(1-cyclopentylpiperidin-4-yl)amino]-3-nitrophenyl}sulfonyl)-2-(1H-indol-5-yloxy)benzamide]",>4714.3,>1429
"O=C(NS(=O)(=O)c1ccc(NCC2CCOCC2)c([N+](=O)[O-])c1)c1ccc(N2CCN(Cc3ccccc3-c3ccc(Cl)cc3)CC2)cc1Oc1ccc2[nH]ccc2c1 [Example 40, 4-{4-[(4′-chloro-1,1′-biphenyl-2-yl)methyl]piperazin-1-yl}-2-(1H-indol-5-yloxy)-N-({3-nitro-4-[(tetrahydro-2H-pyran-4-ylmethyl)amino]phenyl}sulfonyl)benzamide]",>1236.0,>303
"O=C(NS(=O)(=O)c1ccc(NCCCN2CCCC2)c([N+](=O)[O-])c1)c1ccc(N2CCN(CC3=C(c4ccc(Cl)cc4)CCCCCC3)CC2)cc1Oc1cccc2[nH]ccc12 [Example 142, 4-(4-{[2-(4-chlorophenyl)cyclooct-1-en-1-yl]methyl}piperazin-1-yl)-2-(1H-indol-4-yloxy)-N-({3-nitro-4-[(3-pyrrolidin-1-ylpropyl)amino]phenyl}sulfonyl)benzamide]",27.8,>185
"CN(C)CCOc1ccc(-c2ccc(Cl)cc2)c(CN2CCN(c3ccc(C(=O)NS(=O)(=O)c4ccc(NCC5CCOCC5)c(S(=O)(=O)C(F)(F)F)c4)c(Oc4ccccc4)c3)CC2)c1 [Example 120, 4-[4-({4′-chloro-4-[2-(dimethylamino)ethoxy]-1,1′-biphenyl-2-yl}methyl)piperazin-1-yl]-2-phenoxy-N-({4-[(tetrahydro-2H-pyran-4-ylmethyl)amino]-3-[(trifluoromethyl)sulfonyl]phenyl}sulfonyl)benzamide]",224.8,>157
"CN(C)CCOc1cccc(-c2ccc(Cl)cc2)c1CN1CCN(c2ccc(C(=O)NS(=O)(=O)c3ccc(NCC4CCOCC4)c([N+](=O)[O-])c3)c(Oc3cccc4[nH]ccc34)c2)CC1 [Example 128, 4-[4-({4′-chloro-3-[2-(dimethylamino)ethoxy]-1,1′-biphenyl-2-yl}methyl)piperazin-1-yl]-2-(1H-indol-4-yloxy)-N-({3-nitro-4-[(tetrahydro-2H-pyran-4-ylmethyl)amino]phenyl}sulfonyl)benzamide]",7117.6,>2000
"O=C(NS(=O)(=O)c1ccc(NCC2CCOCC2)c([N+](=O)[O-])c1)c1ccc(N2CCN(Cc3cc(OCCN4CCOCC4)ccc3-c3ccc(Cl)cc3)CC2)cc1Oc1cccc2[nH]ccc12 [Example 130, 4-(4-{[4′-chloro-4-(2-morpholin-4-ylethoxy)-1,1′-biphenyl-2-yl]methyl}piperazin-1-yl)-2-(1H-indol-4-yloxy)-N-({3-nitro-4-[(tetrahydro-2H-pyran-4-ylmethyl)amino]phenyl}sulfonyl)benzamide]",>4714.3,>254
"COc1ccc(C2=C(CN3CCN(c4ccc(C(=O)NS(=O)(=O)c5ccc(NCCCN6CCCC6)c([N+](=O)[O-])c5)c(Oc5cccc6[nH]ccc56)c4)CC3)CCC(C)(C)C2)cc1 [Example 68, 2-(1H-indol-4-yloxy)-4-(4-{[2-(4-methoxyphenyl)-4,4-dimethylcyclohex-1-en-1-yl]methyl}piperazin-1-yl)-N-({3-nitro-4-[(3-pyrrolidin-1-ylpropyl)amino]phenyl}sulfonyl)benzamide]",11.4,>1144
"CN1CCC(CNc2ccc(S(=O)(=O)NC(=O)c3ccc(N4CCN(Cc5ccccc5-c5ccc(Cl)cc5)CC4)cc3Oc3ccccc3)cc2[N+](=O)[O-])CC1 [Example 88, 4-{4-[(4′-chloro-1,1′-biphenyl-2-yl)methyl]piperazin-1-yl}-N-[(4-{[(1-methylpiperidin-4-yl)methyl]amino}-3-nitrophenyl)sulfonyl]-2-phenoxybenzamide]",67.3,613
"CN(C)CCOc1ccc(-c2ccc(Cl)cc2)c(CN2CCN(c3ccc(C(=O)NS(=O)(=O)c4ccc(NCC5CCOCC5)c([N+](=O)[O-])c4)c(Oc4ccc5[nH]ccc5c4)c3)CC2)c1 [Example 126, 4-[4-({4′-chloro-4-[2-(dimethylamino)ethoxy]-1,1′-biphenyl-2-yl}methyl)piperazin-1-yl]-2-(1H-indol-5-yloxy)-N-({3-nitro-4-[(tetrahydro-2H-pyran-4-ylmethyl)amino]phenyl}sulfonyl)benzamide]",13575,>1618
